Results reported in patent US8791099B2, “Transition metal complexes of corroles for preventing cardiovascular diseases or disorders” (Technion Research and Development Foundation Ltd., priority 2007, dated 2014).

Columns and labels:
[1] = Oxidation of deoxyribose to malonyldialdehyde by peroxynitrite; conditions: pH 7.4, T=25°C, yield relative to [PN]0; PN alone 1.7%
Experimental: 1 mL of 2.8% trichloroacetic acid and 1 mL of 1% thiobarbituric acid in 0.1 M NaOH adjusted to pH 3.5 were sequentially added to 1 mL samples and the absorbance spectra at 532 nm due to the absorbance maximum of the MDA-thiobarbiturate product were recorded as a function of time (0-22 hr) at 24° C.
(§1) These particular molecules were specifically chosen because they represent targets of hydroxyl radical, nitrogen dioxide, and of oxygen transfer reagents. In addition, their reaction products are easily identified and quantified by established methods.

[2] = Nitration of L-tyrosine by peroxynitrite; conditions: pH 7.4, T=25°C, yield relative to [PN]0; PN alone 11%
Experimental: e) Nitration of L-tyrosine: Peroxynitrite (0.44 μmol) was reacted with 0.16 μmol of L-tyrosine in 2 mL phosphate buffer solution, pH 7.4 at T=24° C. for 5 min. The concentration of such formed nitrotyrosine was estimated by recording the 438 nm absorbance (ε=4200 M^−1cm^−1) of basified solutions (via the addition of 0.2 ml of 7.8 M NaOH).
as §1

LDL = experiment: Oxidation of LDL by copper sulfate; format: biochemical, human; conditions: for Increased damage (TBARS): corrole 0.5 μM
Experimental: (§2) Oxidation was initiated by addition of a freshly prepared CuSO4 solution (5 μM) and incubation at 37° C. under air in a shaking water bath was continued for 2 h (LDL) or 5 h (HDL). Lipoprotein oxidation was determined by measuring the amount of TBARS (Aviram et al. 2001).
(§3) Conjugated dienes formation was continuously monitored for 165 min while TBARS and lipid peroxides (Aviram et al. 2001) were measured after 15, 30, 45, 60, 75, 90, 120 and 165 minutes.
The more commonly used copper-induced LDL oxidation protocol was also applied. […] This may be appreciated from FIGS. 3A-3C, which show the time course of stepwise formation of conjugated dienes, hydroperoxides, and aldehydes (2.5 μM of metal corrole). […] The total amount of hydroperoxides rapidly reached a maximum at 45 min (due to its subsequent transformation to the final aldehyde products) and the total concentration of aldehydes was increased by a factor of 3 relative to the control experiment. […] Similar results were obtained for HDL oxidation.
The dependence of LDL oxidation on the corrole concentration was examined by analyses performed 2 hours after oxidation initiation by the copper ion (FIG. 4A).

HDL = experiment: Oxidation of HDL by copper sulfate; format: biochemical, human; conditions: for Effect on conjugated dienes formation in HDL: 2.5 μM corrole, 5 μM CuSO4
Experimental: as §2, §3
The results for the copper-induced oxidation of HDL were very similar to the results obtained for LDL. […] It should be mentioned that the damage measured for HDL is lower than that measured for LDL, due to the lower lipid content of HDL.

[3] = tested on: mouse peritoneal macrophages (MPM); experiment: Cholesterol efflux from MPM of treated E^0 mice; conditions: drinking water 0.04 mM (8 mg/Kg/day), 14 weeks
Experimental: Mouse peritoneal macrophages were incubated with [^3H]-labeled cholesterol for 1 h at 37° C. followed by cell wash in ice-cold PBS (3×) and further incubation in the absence or presence of 100 μg of human HDL protein/ml for 3 h at 37° C. Cellular and medium [^3H]-labels were quantitated and HDL-mediated cholesterol efflux was calculated as the ratio of [^3H]-label in the medium/[^3H]-label in the medium+[^3H]-label in cells.

[4] = tested on: mouse peritoneal macrophages (MPM); experiment: Cholesterol synthesis by MPM of treated E^0 mice; conditions: drinking water 0.04 mM (8 mg/Kg/day), 14 weeks
Experimental: Cellular cholesterol biosynthesis was assayed after incubation of macrophages (3×10^6 well^−1) overnight with DMEM containing 2% BSA followed by additional 3 h of incubation at 37° C. with [^3H]-acetate (3.3 μCi/ml). Cellular lipids were extracted with hexane:isopropanol (3:2, v:v), and the upper phase was dried under nitrogen. The lipids were then separated by TLC using an eluent of hexane:ether:acetic acid (130:30:1.5, v:v:v). Unesterified cholesterol spots were visualized by iodine vapor (by using standard for identification) and counted with β-counter.

J-774 macrophages = experiment: Cholesterol efflux from J-774 macrophages by serum of treated E^0 mice; conditions: drinking water 0.04 mM (8 mg/Kg/day), 14 weeks
Experimental: J-774 macrophages were incubated with [^3H]-labeled cholesterol for 1.5 h at 37° C. followed by cell wash in ice-cold PBS (3×) and further incubation in the presence of 15 μL mice serum for 3 h at 37° C. Cellular and medium [^3H]-labels were quantitated and HDL-mediated cholesterol efflux was calculated as the ratio of [^3H]-label in the medium/[^3H]-label in the medium+[^3H]-label in cells.

| Compound | Yield of malonyldialdehyde from deoxyribose [1] | Yield of L-nitrotyrosine from L-tyrosine [2] | Aldehydes formation after 24 hours (LDL; 2.5 μM corrole, 5 μM CuSO4) | Damage by all three criteria (conjugated dienes, hydroperoxides, aldehydes) (LDL; 2.5 μM corrole, 5 μM CuSO4) | Fold by which the manganese porphyrin concentration for 100% inhibition exceeds the 1-Fe concentration for full inhibition (LDL; 100 μM vs 2.5 μM) | Concentration giving full inhibition of LDL oxidation (LDL; copper-induced LDL oxidation) | Increased damage (TBARS) (LDL; 2 hours after CuSO4) | Effect on TBARS formation (LDL; corrole 2.5 μM and higher, 2 hours after CuSO4) | Effect on conjugated dienes formation in HDL (HDL) | Effect on TBARS formation in HDL (HDL; corrole 2.5 μM and higher, 5 hr after CuSO4) | Decrease in cholesterol efflux from the E^0 MPM [3] | Reduction of cholesterol synthesis by MPMs [4] | Increase in serum-mediated cholesterol efflux from J-774 macrophages (J-774 macrophages) | Factor of increase of total concentration of aldehydes relative to control (LDL; 2.5 μM corrole, 5 μM CuSO4) | Time at which total hydroperoxides reached a maximum (LDL; 2.5 μM corrole, 5 μM CuSO4) | Delay in formation of conjugated dienes (LDL; 2.5 μM corrole, 5 μM CuSO4, control 30 minutes) | Increase of TBARS formation in HDL (HDL; all concentrations measured, 5 hr after CuSO4) |
| --- | --- | --- | --- | --- | --- | --- | --- | --- | --- | --- | --- | --- | --- | --- | --- | --- | --- |
| O=S(=O)(O)c1cc2[n]3c1C(c1c(F)c(F)c(F)c(F)c1F)=C1C=CC4=[N+]1[Fe-]31[n]3c(cc(S(=O)(=O)O)c3-2)C(c2c(F)c(F)c(F)c(F)c2F)=c2ccc([n]21)=C4c1c(F)c(F)c(F)c(F)c1F (stereo not drawn) [1-Fe, 5,10,15-tris(pentafluorophenyl)-2,17-bis(sulfonic acid)-corrolato iron(III)] | 0% | 11% | no aldehydes were formed | practically no damage | 40 fold | 2.5 µM | minor increase in TBARS | complete inhibition | completely eliminated their formation | protective effect | 20% | 76% | 7% | – | – | – | – |
| O=S(=O)(O)c1cc2[n]3c1C(c1c(F)c(F)c(F)c(F)c1F)=C1C=CC4=[N+]1[Mn-]31[n]3c(cc(S(=O)(=O)O)c3-2)C(c2c(F)c(F)c(F)c(F)c2F)=c2ccc([n]21)=C4c1c(F)c(F)c(F)c(F)c1F (stereo not drawn) [1-Mn, 5,10,15-tris(pentafluorophenyl)-2,17-bis(sulfonic acid)-corrolato manganese(III)] | 0% | 0% | – | – | – | – | about 150% | – | shortened the delay time | – | – | – | – | 3 | 45 min | 15 min | about 2 folds |
